Assay results taken from patent publication US4988707A, “Pharmacologically active phenylalkanoyl substituted imidazo (4,5-C) pyridines” (G. D. Searle & Co., priority 1989, dated 1991).

Columns and labels:
Rabbit Platelet [1] = assay: PAF-induced platelet secretion ([3H]serotonin); type: cell-based; conditions: Oryctolagus cuniculus, washed [3H]serotonin-labeled rabbit platelets, 60 sec preincubation, PAF 0.2 nM to 0.2 μM, secretion at 60 sec
Protocol: (§1) PAF-induced platelet aggregation and secretion: Washed, [^3 H]serotonin-labeled rabbit platelets were prepared as previously described in COX, C. P , J. LINDEN and S. I. SAID: VIP elevates platelet cyclic AMP (cAMP) levels and inhibits in vitro platelet activation induced by platelet activating factor (PAF). Peptides 5:25-28, 1984, and maintained in an atmosphere of 5% CO2 at 37° C. until used in the bioassay. Aliquots of platelets (2.5×10^8 /ml) were incubated with either an antagonist of PAF or the appropriate vehicle for 60 sec prior to the addition of PAF (0.2 nM to 0.2 μM). Aggregation was continuously monitored on a strip-chart recorder and recorded as the height of the tracing at 60 sec after the addition of PAF. Secretion of [^3 H] serotonin was measured in a sample of the platelet suspension removed at 60 sec after the addition of PAF. The percent inhibition of aggregation and secretion was calculated by comparing antagonist-treated platelets with the appropriate vehicle-treated control platelets. Each combination of antagonist and PAF was repeated using different platelet preparations. IC50 values were determined by inspection of the dose-response curves.

Human Platelet Receptor = Human Platelet Receptor (Homo sapiens, UniProt P25105)
Protocol: Inhibition of ^3 H-PAF Binding to Human Platelet Membrane Receptors
Receptor Preparation: Ten units of in-dated human packed platelets, each containing 45-65 ml platelet rich-plasma, were purchased from a commercial blood bank. Disposable plasticware was used throughout for receptor preparation. The units were pooled and a 1 ml aliquot was removed for determination of platelet concentration, using a Coulter Counter. The remaining platelet rich plasma was dispensed into 50 ml conical tubes and centrifuged at room temperature for 15 minutes at 3000 RPM (2300×g).Plasma was decanted and the platelets were resuspended in 35 ml of buffer (10 mM Trizma 7.0, 2 mM EDTA (dipotassium salt), and 150 mM KCl) and transferred to fresh tubes, which were centrifuged again as above. The platelets were washed 3 times, avoiding contaminating erythrocytes at the bottom of the pellets. Pellets were consolidated at each step, and by the last wash with EDTA/KCl buffer, most of the erythrocytes were in 1 tube. The pellets were resuspended in buffer containing 10 mM Trizma 7.0 with 10 mM CaCl2. Following centrifugation, the buffer was decanted and the pellets were resuspended in the CaCl2 buffer, avoiding erythrocyte contamination by recovering less than 100% of the platelet pellets. The resuspended platelets were dispensed in 8-10 ml aliquots into Corex tubes and disrupted by three cycles of freezing (dry ice/ethanol) and thawing (24° C.). The tubes were centrifuged at 40,000×g for 20 minutes at 4° C. Supernatants were decanted and each pellet was resuspended in 5-7 ml 10 mM Trizma 7.0. All resuspended pellets were pooled and aliquots of about 1200 μl were dispensed into 1.5 ml microfuge tubes and frozen at -70° C. Protein content was determined by a fluorescamine protein assay.
Assay Methods: Receptor Characterization--Each receptor preparation was evaluated to determine the number of receptor populations, the number of PAF receptor equivalents/mg protein and the dissociation constant (KD) for PAF binding. This required 2-3 experiments in which the protein concentration was held constant and the ^3 H-PAF ligand concentration was varied from approximately 0.10-2.5 nM and the data was analyzed by Scatchard methodology. Total incubation volume was 250 μl for these procedures and incubations were conducted at 24° C. for 30 minutes. For further experimentation, total incubation volumes are 500 μl. Protein and ligand concentrations were adjusted to give 0.075 nM receptor equivalents in the presence of 0.75 nM ^3 H-PAF. Each receptor preparation was then used to determine the dose--response displacement relationship of unlabeled PAF and the PAF antagonist, triazolam.
Assay Methods: Routine Assay of Compounds--The compounds were weighed precisely and solubilized in quantities of DMSO such that a 5 μl aliquot in the incubate would deliver the desired compound concentration. Compounds tested for the first time in this assay were evaluated at a concentration of 50 μM in the incubation medium. […] Triazolam was always included in each screening assay as a compound inhibition control. […] Nonspecific binding control solution was made by drying to completion about 26.2 μl unlabeled PAF under a stream of argon. PAF was resolubilized in 1000 μl DMSO. When delivered in a 5 μl aliquot, the final concentration of 1 μM PAF in the incubate exceeded by 1000-fold the concentration of ^3 H-PAF.
All buffers containing proteins were made at room temperature on the day of assay. […]

Rabbit Platelet [2] = assay: PAF-induced platelet aggregation; type: cell-based; conditions: Oryctolagus cuniculus, washed rabbit platelets, 60 sec preincubation, PAF 0.2 nM to 0.2 μM, aggregation at 60 sec
Protocol: as §1

Sequence of Human Platelet Receptor (P25105 whole entry): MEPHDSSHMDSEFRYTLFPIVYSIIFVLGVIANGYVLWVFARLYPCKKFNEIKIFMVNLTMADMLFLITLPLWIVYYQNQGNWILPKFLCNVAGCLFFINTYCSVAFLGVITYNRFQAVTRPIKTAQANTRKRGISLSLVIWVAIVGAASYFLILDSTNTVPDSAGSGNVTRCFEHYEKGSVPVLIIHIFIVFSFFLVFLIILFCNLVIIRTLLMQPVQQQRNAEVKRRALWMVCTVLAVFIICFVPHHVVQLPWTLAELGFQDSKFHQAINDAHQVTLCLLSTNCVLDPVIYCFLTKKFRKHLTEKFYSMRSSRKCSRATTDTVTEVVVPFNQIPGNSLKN

Structure (SMILES)	IC50 (Rabbit Platelet [1])	IC50 (Human Platelet Receptor)	IC50 (Rabbit Platelet [2])	inhibition at 50 µM (Human Platelet Receptor; read-out: inhibition of 3H-PAF binding)
O=C(CC1CCCC1)c1ccc(Cn2ccc3ncnc-3c2)cc1 [2-Cyclopentyl-1-[4-(5H-Imidazo[4,5-c]Pyridin-5-yl-Methyl)Phenyl]Ethanone]	379 nM	8.41 nM	2590 nM	–
O=C(c1ccc(Cn2ccc3ncnc-3c2)cc1)C(C1CCCCC1)C1CCCC1 (stereo not shown) [2-Cyclohexyl-2-Cyclopentyl-1-[4-(5H Imidazol[4,5-c]Pyridin-5-yl-Methyl)Phenyl]Ethanone]	89 nM	1.46 nM	279 nM	–
C=CCC(C(=O)c1ccc(Cn2ccc3ncnc-3c2)cc1)C1CCCCC1 (stereo not shown) [2-Cyclohexyl-1-[4-(5H-Imidazo[4,5-c]Pyridin-5-yl-Methyl)Phenyl]-4-Penten-1-One]	105 nM	2.22 nM	633 nM	–
O=C(CC1CCCCC1)c1ccc(Cn2ccc3ncnc-3c2)cc1 [2 Cyclohexyl-1-[4-(5H-Imidazo[4,5-c]Pyridin 5-yl-Methyl)Phenyl]Ethanone]	131 nM	4.44 nM	948 nM	–
Cc1nnc2n1-c1ccc(Cl)cc1C(c1ccccc1Cl)=NC2 [triazolam, reference compound]	–	–	–	~50%
